# According to patent US9120762B2, “Salts of bicyclo-substituted pyrazolon azo derivatives, preparation method and use thereof” (Jiangsu Hengrui Medicine Co., Ltd., priority 2009, dated 2015):
# How the values were obtained:
# [1] = Pharmacokinetics assay in rats; format: in vivo, SD rats; conditions: SD rats, intragastric, 50 mg/Kg (as free acid); 50 mg/kg
# How it was run: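 SD rats, half male and half female, dosed intragastrically with compound suspended at 5 mg/mL (as free acid) in 1% sodium carboxymethyl cellulose; fed 2 h post-dose. Plasma concentrations over time were measured by HPLC-UV. Parameters came from a compartmental fit, with Cmax and tmax as observed values.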
# [2] = Pharmacokinetics assay in Beagle dogs; format: in vivo; conditions: intragastric, 5 mg/kg (as free acid), 5 mg/kg
# Description: The pharmacokinetic behavior of the compounds of the present disclosure was studied and evaluated in Beagle dogs.
# 12 Healthy adult Beagles dogs, male, were purchased from Suzhou Xishan Drug Research and Development Colo., LTD. License number: SCXK (Suzhou) 2007-0005.
# The test compound was diluted with 0.5% sodium carboxymethyl cellulose to 2.5 mg/mL (calculated as the free acid form) of suspension before use.
# 12 Healthy adult Beagles dogs, male, were divided into 4 groups. After an overnight fast, the dogs were administered intragastrically at a dose of 5.0 mg/kg (calculated as the free acid form), at a volume of 2 mL/kg.
# Blood samples (1.2 mL) were taken from vein of forelegs at pre administration and at 0.25, 0.5, 1.0, 1.5, 2.0, 3.0, 5.0, 6.0, 8.0, 12.0, 14.0, 24.0 and 48.0 hours post administration, which were stored in heparinized tubes and centrifuged for 10 minutes at 3,500 rpm. The plasma samples were stored at −20° C. until analysis. The Beagles dogs were fed 2 hours after administration.
# 50 μL of Beagles dog plasma, obtained at various time points after administration, 20 μL of internal standard solution and 150 μL of methanol was added to result in protein precipitation. Then the mixture was mixed for 1 minute using a vortexer and centrifuged for 5 minutes at 11,000 rpm. 50 μL of the supernatant was analyzed by HPLC-UV.
# The compartmental model of pharmacokinetics was fitted for the test compounds and the major pharmacokinetic parameters were calculated in which Cmax and tmax were the actually measured values.
# [3] = target: T1, human TPOR (Homo sapiens, UniProt P40238); test: Proliferation effect on BAF3-TPOR cell (CCK-8); format: cell-based; conditions: rate relative to rhTPO positive control
# T1 construct: host or cells: BaF3 (murine pro-B cells), stably transfected, G418-selected
# T1 sequence (P40238 26-635): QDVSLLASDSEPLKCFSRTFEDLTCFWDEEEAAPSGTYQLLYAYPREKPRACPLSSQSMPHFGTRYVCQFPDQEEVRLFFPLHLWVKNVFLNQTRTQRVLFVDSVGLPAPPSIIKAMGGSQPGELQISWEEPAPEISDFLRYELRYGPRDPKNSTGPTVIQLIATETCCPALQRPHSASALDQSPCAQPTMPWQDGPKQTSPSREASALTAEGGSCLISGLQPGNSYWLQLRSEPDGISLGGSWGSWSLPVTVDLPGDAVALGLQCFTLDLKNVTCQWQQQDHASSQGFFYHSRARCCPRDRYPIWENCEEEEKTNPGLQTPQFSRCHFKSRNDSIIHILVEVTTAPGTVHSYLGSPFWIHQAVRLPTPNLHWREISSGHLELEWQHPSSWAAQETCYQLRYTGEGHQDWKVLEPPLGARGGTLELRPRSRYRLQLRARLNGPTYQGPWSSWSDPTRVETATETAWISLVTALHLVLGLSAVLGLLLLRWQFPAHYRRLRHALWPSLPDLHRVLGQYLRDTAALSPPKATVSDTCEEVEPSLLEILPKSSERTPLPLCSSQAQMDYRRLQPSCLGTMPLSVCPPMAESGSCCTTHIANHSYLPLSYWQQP
# How it was run: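 BaF3 cells stably expressing dual-site-mutated human TPOR were washed free of IL-3 and plated at 100,000 cells/mL with test solutions of 0.001–30 μM, then incubated 24 h at 37 °C. After a further 24 h with CCK-8, OD450 was read. Proliferation = (S−B)/(P−B) against a rhTPO control, fitted for EC50.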
# [4] = Hygroscopicity assay, standing 48 hours at 25° C., humidity 79%; format: physicochemical; conditions: 48 hours, 25° C., humidity 79%
# Description: The hygroscopicity test of the compounds of the present disclosure after standing for 48 hours
# 1. The arid glass weighing bottle with a tap (external diameter is 50 mm, the height is 15 mm) was placed at 25° C.±1° C. suitably in a thermostatic drier (saturated ammonium sulfate solution was laid in the lower part, humidity was 79%) the day before the assay, precise weight was measured as (m1);
# 2. The above weighing bottle was covered with the compounds of the invention (about 1 g), and the thickness of the compounds were generally 1 mm, precise weight was measured as (m2);
# 3. The mouth of the weighing bottle was kept open and placed with the tap in the above conditions with constant temperature and humidity for 48 hours;
# 4. Put the tap back on the bottle, precise weight was measured as (m3)
# The degree of hygroscopicity was defined as follows: […]
# Deliquesce: turning into liquid by absorbing enough moisture.
# High hygroscopicity: the percentage of hygroscopicity weight gain is not less than 15%.
# Hygroscopicity: the percentage of hygroscopicity weight gain is less than 15%, but not less than 2%.
# Sparing hygroscopicity: the percentage of hygroscopicity weight gain is less than 2%, but not less than 0.2%.
# No hygroscopicity or almost no hygroscopicity: the percentage of hygroscopicity weight gain is less than 0.2%.
compound,measurement,setting,value
CC1=NN(c2ccc3c(c2)CCCC3)C(=O)/C1=N\Nc1cccc(-c2ccc(C(=O)O)o2)c1O [Example 10],Area Under Curve AUC,[1],381 ± 306 µg·h/mL
same,Clearance CL/F,[1],8.23 ± 12.6 mL/min/kg
same,Half-Life t½,[1],12.9 ± 6.32 h
same,Plasma Conc. Cmax,[1],65600 ± 44500 ng/mL
same,Time to peak Tmax,[1],1.63 ± 0.75 h
same,Area Under Curve AUC,[2],9.76 µg·h/mL
same,Clearance CL/F,[2],10.1 mL/min/kg
same,Half-Life t1/2,[2],8.07 h
same,Plasma Conc. Cmax,[2],810 ng/mL
same,Time to peak Tmax,[2],0.7 h
same,EC50,[3],16 nM
same,Percentage of weight gain,[4],15.7%
same,hygroscopicity,[4],High hygroscopicity (the percentage of hygroscopicity weight gain is not less than 15%)
